What was measured:
[1] = target: T1, BLT1 (Homo sapiens, UniProt Q15722); assay: LTB4-induced chemotactic motility, Transwell, CHO-BLT1 cells; type: cell-based; conditions: LTB4 10 nM, serum-free, read-out: IC50 of chemotactic motility inhibition
T1 construct: expressed in transfected cells; host or cells: CHO cells stably expressing BLT1 (CHO-BLT1)
Procedure: (§1) Chemotactic motility was analyzed using a Transwell chamber including a polycarbonate filter (8-μm pore size, Corning Costar) with a 6.5-mm diameter. Specifically, the lower surface of the filter was coated with 10 μg/mL fibronectin in a serum-free RPMI 1640 medium at 37° C. for 1 hour. The experiment was performed by placing the filter dried and coated with RPMI 1640 media containing various amounts of LTB4 in the lower wells of the Transwell chamber, and loading CHO cells stably expressing BLT1 and BLT2 into the upper wells containing serum-free RPMI 1640 media finally at 2×10^4 cells/100 μL. To evaluate the effect of inhibitors, the cells were pre-treated with each inhibitor for 30 minutes before dispensing. After the cells were cultured at 37° C. in 5% CO2 for 3 hours, the filters were fixed with methanol for 3 minutes, and stained with hematoxylin and eosin for 10 minutes. In the experiment, the cells were BLT2-expressing cells (CHO-BLT2 cells) and BLT1-expressing cells (CHO-BLT1 cells), and LY255283 and U75302 were used as positive controls for each type of the cells, and BLT2 ligand LTB4, (300 nM), BLT1 ligand LTB4 (10 nM), and lysophosphatidic acid (LPA; 100 nM) were used as comparative controls. The chemotactic motility was quantitatively analyzed by counting the cells on the lower side of the filter under an optical microscope (magnification, 200×). For each analysis, 6 fields were subjected to counting, each sample was analyzed twice, and the analysis was repeated three times.

[2] = system: asthma-induced mice (OVA+LPS); assay: OVA+LPS-induced severe asthma mice: AHR and cell influx; type: in vivo; conditions: for AHR reduced: airway constrictor 50 mg/ml
Excerpt: Mast cells play a pivotal role in the initial reaction to asthma, and when an allergen enters the body from the outside through an airway, the mast cells are activated, thereby secreting various cytokines (interleukin-4 and interleukin-13). Due to the cytokines, the influx of inflammatory cells, the generation of mucus and the airway contraction occur. The inventors used 7-week-old (18 to 20 g) female BALB/c mice provided by Orient (Seoungnam, Korea) for the experiment to confirm the antiasthma effect, and then the asthma was induced in the mice. On the first and 14th days, 2.5 mg of an adjuvant, aluminum hydroxide gel (alum; Pierce, Rockford, Ill.) was included in […] of ovalbumin (OVA) to intraperitoneally sensitize female […] mice. On the 21st, 22nd and 23rd days of two initial sensitizations, 1% OVA was sprayed into the mice using an ultrasonic nebulizer. The compound of the present invention (LMT-696; 5 mg/kg), LY255283 (5 mg/kg, Cayman) or DMSO was intraperitoneally injected at the 1 hour before the 1% OVA spraying. On the 24th day of the initial sensitization, airway hyperresponsiveness (AHR) was detected, and on the 25th day, the mice were dissected to observe asthma phenotypes, for example, inflammatory cytokine IL-4 expression and the influx of inflammatory cells (neutrophils). In the case of lipopolysaccharide (LPS)-induced severe asthma animal models, on the 0, 1st, 2nd and 7th days, 75 μg of OVA and 1 mg of LPS were intranasally injected into Balb/c mice for sensitization. On the 14th, 15th, 21th and 22th days, 50 μg of OVA was injected into the nose for a challenge. The compound of the present invention (LMT-1013) (1, 3, 10 or 30 mg/kg), montelukast (10 mg/kg, DRS) or a control buffer (10% DMA, 5% Tween 80, 85% brine) were treated one hour before the challenge by injecting 50 μg of OVA into the nose. On the 23rd day of the initial sensitization, AHR was detected, and on the 24th day, the mice were dissected to observe a severe asthma phenotype, for example, the influx of the inflammatory cells (neutrophils). In addition, the AHR detection was performed after an airway constrictor, methacholine (6.25 to 50 mg/ml depending on conditions), was administered to the mice. The administration of the airway constrictor was performed by spraying through an inlet of the chamber using an ultrasonic nebulizer for 3 minutes. The AHR was analyzed using an enhanced pause as the indicator of the asthma phenomenon. Bronchoalveolar lavage fluid cell counts were quantified by counting cells under an optical microscope (magnification, 200×). In each analysis, 4 fields were subjected to counting, each sample was analyzed twice, and the analysis was repeated three times.

[3] = target: T2, BLT2 (Homo sapiens, UniProt Q9NPC1); assay: LTB4-induced chemotactic motility, Transwell, CHO-BLT2 cells; type: cell-based; conditions: LTB4 300 nM, serum-free, read-out: IC50 of chemotactic motility inhibition
T2 construct: HA; expressed in transfected cells
T2 sequence (Q9NPC1 with tags, fused parts or gaps): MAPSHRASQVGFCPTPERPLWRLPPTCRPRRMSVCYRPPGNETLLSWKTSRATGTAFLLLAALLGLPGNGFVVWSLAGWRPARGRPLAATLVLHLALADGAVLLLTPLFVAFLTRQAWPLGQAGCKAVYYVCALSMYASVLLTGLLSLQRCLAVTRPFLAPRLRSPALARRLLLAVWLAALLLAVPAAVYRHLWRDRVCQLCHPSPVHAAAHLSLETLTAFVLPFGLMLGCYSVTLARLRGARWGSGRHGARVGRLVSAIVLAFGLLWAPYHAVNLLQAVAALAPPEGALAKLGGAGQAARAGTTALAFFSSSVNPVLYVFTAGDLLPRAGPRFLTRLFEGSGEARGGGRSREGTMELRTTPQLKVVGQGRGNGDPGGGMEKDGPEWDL
Procedure: as §1

[4] = target: T2, BLT2; assay: [3H]LTB4 and BLT2 binding inhibition, CHO-BLT2 cell membrane proteins; conditions: [3H]LTB4 5 nM
Procedure: The inhibition of LTB4 and BLT2 binding (ligand binding affinity) was analyzed using radioactive tritium (^3H)-labeled LTB4 ([^3H]LTB4, ARC; specific activity 160.0 Ci/mmol). After 2×10^6 of CHO-BLT2 cells were plated into a 100-mm culture dish and cultured for 48 hours, an experimental method was carried out as follows: Collected cells were treated using a homogenizer a total of five times for 1 minute each to separate proteins of the cell membrane. Afterward, the cells were subjected to centrifugation at 4° C. and 45,000 rpm for 40 minutes to only collect the proteins of the cell membrane, and thereby, a protein concentration of 40 μg/45 μL was quantified. When a BLT2-containing cell membrane proteins which were quantified in the same manner was treated with the same amount of [^3H]LTB4 (5 nM), and then a different concentration (10^−9, 10^−8, 10^−7, 10^−6 or 10^−5 M) of a compound, a degree of inhibiting the tritium-labeled LTB4 and BLT2 binding was measured using a Hidex 300sL liquid scintillation counter.

[5] = target: T3, BLT2-expressing cells (CHO-BLT2 cells) (Homo sapiens, UniProt Q9NPC1); assay: MTT cell growth of LTB4-stimulated BLT2-expressing cells; type: cell-based; conditions: pre-treated at 10 μM, LTB4 300 nM
T3 construct: HA; expressed in transfected cells
T3 sequence (Q9NPC1 with tags, fused parts or gaps): T2 sequence (Q9NPC1 with tags, fused parts or gaps)
Procedure: Cell viability according to treatment of the compounds prepared in the examples were measured by a 3-(4,5-dimethylthiazol-2-yl)-2,5-diphenyltetrazolium bromide (MTT) method.
More specifically, 1×10^4 each of the BLT2-nonexpressing cells (CHO-pcDNA3.1 cells) and BLT2-expressing cells (CHO-BLT2 cells), which were prepared in Experimental Example 1, were dispensed in a […], and cultured for 24 hours. Afterward, the culture medium was removed, a serum-free RPMI medium was added, and after two hours, the cells were pre-treated with each of the compound prepared in one of the examples (10 μM), 10 μM DMSO (compound solvent) as a control, and 10 μM 1-[5-ethyl-2-hydroxy-4-[[6-methyl-6-(1H-tetrazol-5-yl)heptyl]oxy]phenyl]-ethanone (LY255283; Cayman) as a positive control for 1 hour. Subsequently, after treatment of LTB4 (300 nM), the cells were cultured for 24 hours. 20 μL of an MTT solution (5 mg/mL, Sigma-Aldrich) was added to each well, the cells were cultured in a humid CO2 incubator at 37° C. for 4 hours, a supernatant was removed, and 200 μL of DMSO was added to each well to dissolve insoluble violet formazan crystals. Absorbance was measured using a microplate reader (Molecular Devices, Sunnyvale, Calif.) at 550 nm, and the measurement was repeated three times.

T1 sequence (Q15722 whole entry, species assumed): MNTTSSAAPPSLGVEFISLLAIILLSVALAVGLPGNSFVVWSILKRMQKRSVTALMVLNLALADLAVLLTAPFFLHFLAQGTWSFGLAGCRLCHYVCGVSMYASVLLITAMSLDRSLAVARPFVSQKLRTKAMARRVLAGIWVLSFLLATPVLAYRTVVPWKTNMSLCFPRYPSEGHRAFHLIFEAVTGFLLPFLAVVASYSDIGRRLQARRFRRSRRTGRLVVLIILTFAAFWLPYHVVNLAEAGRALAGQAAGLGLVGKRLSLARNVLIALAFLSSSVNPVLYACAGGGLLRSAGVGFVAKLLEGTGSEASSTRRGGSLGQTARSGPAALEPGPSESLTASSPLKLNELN

CCCCC(=O)N(CC#Cc1ccc(C(=O)O)cc1)c1ccccc1 [LMT-1013, 4-(3-(N-phenylpentaneamido)prop-1-yn-1-yl)benzoic acid]
IC50 [1]: ≥ 10000 nM
neutrophils reduced ([2]; 1 mg/kg, FIGS. 13A-13C): 51.6%
neutrophils reduced ([2]; 1 mg/kg, FIGS. 14A-14B): 42.2%
AHR reduced ([2]; 1 mg/kg): 48.6%
neutrophils reduced ([2]; 3 mg/kg, FIGS. 14A-14B): 48.8%
AHR reduced ([2]; 3 mg/kg): 52.9%
neutrophils reduced ([2]; 10 mg/kg, FIGS. 13A-13C): 90.3%
neutrophils reduced ([2]; 10 mg/kg, FIGS. 14A-14B): 71.8%
AHR reduced ([2]; 10 mg/kg): 83.2%
neutrophils reduced ([2]; 30 mg/kg, FIGS. 14A-14B): 88.3%
AHR reduced ([2]; 30 mg/kg): 87.3%
total cells entering the abdominal cavity of the mice ([2]; 1, 3, 10 and 30 mg/kg, FIGS. 14A-14B): reduced
total cells entering the abdominal cavity of the mice ([2]; 1 and 10 mg/kg, FIGS. 13A-13C): reduced
IC50 [3]: 62.4 nM
IC50 [4]: 30.7 nM
cell growth compared with the control DMSO [5]: 96.3%

Reference: patent publication US10766857B2, “Compound having BLT inhibitory activity and composition, for preventing or treating inflammatory diseases, comprising same as active ingredient” (DONGGUK UNIVERSITY INDUSTRY-ACADEMIC COOPERATION FOUNDATION, priority 2015, dated 2020)
